This test has as its system rabbit aorta strips. The test can be described thus: Vasoconstrictory effect in rabbit aorta strips at low depolarizing conditions (10 mM K+). As to conditions: for EC50: Oryctolagus cuniculus, rabbit aorta strips predepolarized with 10 mM K+. It counts as cell-based. As for the experimental part:
The vasoconstrictory effects are measured at low depolarizing conditions in rabbit aorta strips. 10 mM K^+ is used to obtain a low starting concentration. Subsequently, increasing concentrations of the test compound are added in order to achieve an increase in contraction.
The EC50 (negative logarithm of the molar concentration required to increase the calcium induced contraction of low K^+ depolarized rabbit aorta by 50%) is analysed by interpolation of the corresponding concentration-response curves (table 4).

Structures are written as SMILES.

One may read the EC50 as the concentration at which the effect is half-maximal. `COC(=O)C1=C(C)NC(C)=C([N+](=O)[O-])C1c1ccccc1C(F)(F)F` (stereo not drawn) [BayK-8644, 2,6-dimethyl-3-nitro-4-(2-trifluoromethylphenyl)-1,4-dihydropyridine-5-carboxylic acid methylester, reference compound] gave an EC50 of 13 nM.
Regarding `CC1=C(C(=O)OCN2C(=O)c3ccccc3S2(=O)=O)C(c2cccc([N+](=O)[O-])c2)C(C(=O)OC(C)(C)C)=C(C)N1` (stereo not drawn) [Example 53, 5-Tert.-butoxycarbonyl-2,6-dimethyl-4-(3-nitrophenyl)-1,4-dihydropyridine-3-carboxylic acid-N-(1,2-benzisothiazolyl-3(2H)one-1,1-dioxide)-methylester], the “vasoconstrictory properties (in words)” value is “has vasoconstrictory properties” and the EC50 turned out to be 9.3 nM.
